Measurements: patent US9314510B2, “Human laminin α2 chain LG3 domain and active peptides promoting cell adhesion, spreading, migration, and neurite outgrowth” (SNU R&DB Foundation, priority 2011, dated 2016)
Ends that are not written are not given here.

Columns and labels:
PC12 cells [1] = assay: Summary of cell adhesion, spreading, migration and neurite outgrowth promotive effects; type: cell-based, rat; settings: summary statement of the description
Method: To measure cell adhesion, spreading, migration, and neurite outgrowth promotive activities of PC12 cells using the prepared synthetic peptides that are N- and C-terminal truncated or C-terminal added peptides of the Ln2-LG3-P2 peptide, peptides described in Table 1 were coated onto plates at 62.5 μg/mL and PC12 cells were seeded thereon.

Schwann cells = assay: Schwann cell spreading on coated plates; type: cell-based, human; settings: plates coated with 62.5 μg/mL peptide, 3 h
Method: Schwann cells, nerve cells used in the present invention, were obtained from human skin-derived precursors by differentiating the cells toward the Schwann cell lineage for two weeks and identified by immunocytochemical markers specific to Schwann cells, such as S100D and glial fibrillary acidic protein (GFAP) (Biernaskie, J. A. et al., Nat. Protoc., 2006).
Schwann cells were cultured on plates which were coated in the same way for 3 h in serum-free medium and the cell spreading of Schwann cells was observed.

[2] = system: normal human epidermal keratinocytes (NHEK); assay: Cell adhesion to Ln2-LG3-P2-coated plates, NHEK; type: cell-based; settings: NHEK at passage 2, 62.5 μg/mL, 1 h
Method: Normal human epidermal keratinocytes (NHEK) isolated from epidermal tissue of normal human epidermal skin were cultured in keratinocyte growth medium (KGM, manufactured by Clonetics, San Diego, Calif.). Cells at passage 2 were used for the following experiments.

PC12 cells [3] = assay: Neurite outgrowth assay; type: cell-based, rat; settings: PC12 cells on coated plates, serum-free, 24 h + 72 h
Method: Laminin, rLG domain protein, and the peptide were coated onto plates and cells were seeded on the plates in serum-free medium and incubated for 24 h. After changing with serum-free medium again, cells were further cultured for 72 h and neurite outgrowth was examined.

Molecule	cell adhesion, spreading, migration, and neurite outgrowth promotive effects (PC12 cells [1])	Schwann cell spreading (Schwann cells)	reduction of Schwann cell spreading compared to laminin (Schwann cells; laminin 5 μg/mL)	cell adhesion activity [2]	neurite outgrowth (PC12 cells [3])
RNIPPFEGCIWN (RNIPPFEGCIWN-NH2; listed as Homo sapiens) [Ln2-LG3-P2, 12-mer peptide, position 2675 to 2686 in human laminin α2 chain]	occurred the most actively	substantially higher spreading than BSA or scrambled peptide	approximately 50%	strong cell adhesion activity	–
rLG3: recombinant His6-tagged human laminin α2 chain LG3 domain, amino acids 2537 to 2745 (protein, listed as Homo sapiens, His6 tag) VELSPVPIDVGTEINLSFSTKNESGIILLGSGGTPAPPRRKRRQTGQAYYVILLNRGRLEVHLSTGARTMRKIVIRPEPNLFHDGREHSVHVERTRGIFTVQVDENRRYMQNLTVEQPIEVKKLFVGGAPPEFQPSPLRNIPPFEGCIWNLVINSVPMDFARPVSFKNADIGRCAHQKLREDEDGAAPAEIVIQPEPVPTPAFPTPTPV	–	–	–	–	supports cell adhesion, spreading, migration, and neurite outgrowth
